# What was measured:
# Assay in all cases: KINOMEscan kinase binding assay
# [1] = biological target: T1, 384 kinases from the human genome (Homo sapiens, UniProt Q96PY6); details: kinase NEK1 (Entrez NEK1)
# T1 construct: purchased Eurofin/DiscoverX
# In short: (§1)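 A panel of 384 human kinases was profiled by KINOMEscan binding in the presence of 10 µM compound. Kinase–ligand binding was given as percent of DMSO control, averaged from duplicates in a single run, with an S(10) selectivity score.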
# [2] = biological target: T2, 384 kinases from the human genome (Homo sapiens, UniProt O00750); details: kinase PIK3C2B (Entrez PIK3C2B)
# T2 construct: purchased Eurofin/DiscoverX
# T2 sequence (O00750 whole entry): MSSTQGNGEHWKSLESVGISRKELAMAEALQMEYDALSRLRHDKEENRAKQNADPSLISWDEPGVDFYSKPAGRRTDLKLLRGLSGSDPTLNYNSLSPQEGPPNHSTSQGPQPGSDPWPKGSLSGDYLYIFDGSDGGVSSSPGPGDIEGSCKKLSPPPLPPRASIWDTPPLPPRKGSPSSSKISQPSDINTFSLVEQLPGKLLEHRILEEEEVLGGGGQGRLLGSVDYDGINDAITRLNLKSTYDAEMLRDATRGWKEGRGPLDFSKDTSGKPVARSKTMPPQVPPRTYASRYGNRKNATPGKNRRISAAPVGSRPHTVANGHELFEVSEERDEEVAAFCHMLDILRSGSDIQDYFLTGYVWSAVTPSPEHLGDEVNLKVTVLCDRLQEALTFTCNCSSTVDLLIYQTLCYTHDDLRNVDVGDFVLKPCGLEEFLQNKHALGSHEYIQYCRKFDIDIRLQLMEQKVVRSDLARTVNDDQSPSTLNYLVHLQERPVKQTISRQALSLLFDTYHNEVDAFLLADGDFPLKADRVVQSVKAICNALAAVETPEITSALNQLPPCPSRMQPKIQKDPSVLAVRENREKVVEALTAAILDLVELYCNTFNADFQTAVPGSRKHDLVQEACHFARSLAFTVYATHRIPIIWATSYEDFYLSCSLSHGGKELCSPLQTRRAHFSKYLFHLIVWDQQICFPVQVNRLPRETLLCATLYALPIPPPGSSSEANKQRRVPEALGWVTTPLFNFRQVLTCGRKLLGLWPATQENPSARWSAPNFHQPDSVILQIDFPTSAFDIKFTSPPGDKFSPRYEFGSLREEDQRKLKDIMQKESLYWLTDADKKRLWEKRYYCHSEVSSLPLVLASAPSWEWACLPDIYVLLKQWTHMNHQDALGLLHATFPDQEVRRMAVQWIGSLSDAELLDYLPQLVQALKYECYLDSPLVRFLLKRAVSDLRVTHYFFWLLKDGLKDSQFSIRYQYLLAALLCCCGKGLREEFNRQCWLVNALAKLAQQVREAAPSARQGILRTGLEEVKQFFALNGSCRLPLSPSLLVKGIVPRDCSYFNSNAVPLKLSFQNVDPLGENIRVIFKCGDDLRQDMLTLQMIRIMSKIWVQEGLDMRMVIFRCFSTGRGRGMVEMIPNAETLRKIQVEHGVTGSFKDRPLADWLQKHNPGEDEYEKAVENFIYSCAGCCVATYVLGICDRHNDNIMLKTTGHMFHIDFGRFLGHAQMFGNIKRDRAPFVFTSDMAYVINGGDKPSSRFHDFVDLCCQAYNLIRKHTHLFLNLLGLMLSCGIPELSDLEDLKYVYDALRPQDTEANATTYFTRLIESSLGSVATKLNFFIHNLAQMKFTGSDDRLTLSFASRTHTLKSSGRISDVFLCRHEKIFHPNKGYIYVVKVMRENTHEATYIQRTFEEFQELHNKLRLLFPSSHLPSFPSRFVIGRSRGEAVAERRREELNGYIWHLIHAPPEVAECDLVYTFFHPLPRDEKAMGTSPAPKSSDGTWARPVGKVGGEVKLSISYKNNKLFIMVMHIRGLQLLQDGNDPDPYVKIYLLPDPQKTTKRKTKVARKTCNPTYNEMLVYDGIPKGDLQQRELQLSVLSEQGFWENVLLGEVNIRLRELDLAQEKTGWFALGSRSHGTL
# In short: as §1
# [3] = biological target: T3, 384 kinases from the human genome (Homo sapiens, UniProt P51617); details: kinase IRAK1 (Entrez IRAK1)
# T3 construct: purchased Eurofin/DiscoverX
# In short: as §1
# [4] = biological target: T4, 384 kinases from the human genome (Homo sapiens, UniProt O14733); details: kinase MKK7 (Entrez MAP2K7)
# T4 construct: purchased Eurofin/DiscoverX
# In short: as §1
# [5] = biological target: T5, 384 kinases from the human genome (Homo sapiens, UniProt Q12866); details: kinase MERTK (Entrez MERTK)
# T5 construct: purchased Eurofin/DiscoverX
# In short: as §1
# [6] = biological target: T6, 384 kinases from the human genome (Homo sapiens, UniProt P51957); details: kinase NEK4 (Entrez NEK4)
# T6 construct: purchased Eurofin/DiscoverX
# In short: as §1
# [7] = biological target: T7, 384 kinases from the human genome (Homo sapiens, UniProt P09769); details: kinase FGR (Entrez FGR)
# T7 construct: purchased Eurofin/DiscoverX
# In short: as §1
# [8] = biological target: T8, 384 kinases from the human genome (Homo sapiens, UniProt Q9P289); details: kinase MST4 (Entrez MST4)
# T8 construct: purchased Eurofin/DiscoverX
# In short: as §1
# [9] = biological target: T9, 384 kinases from the human genome (Homo sapiens, UniProt Q14012); details: kinase CAMK1 (Entrez CAMK1)
# T9 construct: purchased Eurofin/DiscoverX
# In short: as §1
# [10] = biological target: T10, 384 kinases from the human genome (Homo sapiens, UniProt O00238); details: kinase BMPR1B (Entrez BMPR1B)
# T10 construct: purchased Eurofin/DiscoverX
# T10 sequence (O00238 14-502): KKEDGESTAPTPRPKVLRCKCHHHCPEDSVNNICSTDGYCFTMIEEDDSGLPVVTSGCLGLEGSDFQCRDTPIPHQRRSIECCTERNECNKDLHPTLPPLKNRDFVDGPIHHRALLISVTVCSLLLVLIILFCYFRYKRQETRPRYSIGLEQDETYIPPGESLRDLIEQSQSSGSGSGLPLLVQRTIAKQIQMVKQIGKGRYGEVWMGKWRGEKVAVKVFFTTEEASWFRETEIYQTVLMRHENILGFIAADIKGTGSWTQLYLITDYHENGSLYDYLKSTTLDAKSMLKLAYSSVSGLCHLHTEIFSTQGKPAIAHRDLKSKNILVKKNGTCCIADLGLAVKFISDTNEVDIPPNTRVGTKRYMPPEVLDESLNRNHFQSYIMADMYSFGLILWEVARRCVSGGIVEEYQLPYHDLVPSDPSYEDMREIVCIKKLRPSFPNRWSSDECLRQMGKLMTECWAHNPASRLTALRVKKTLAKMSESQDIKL
# In short: as §1
# [11] = biological target: T11, 384 kinases from the human genome (Homo sapiens, UniProt Q9Y2I7); details: kinase PIKFYVE (Entrez PIKFYVE)
# T11 construct: purchased Eurofin/DiscoverX
# T11 sequence (Q9Y2I7 whole entry): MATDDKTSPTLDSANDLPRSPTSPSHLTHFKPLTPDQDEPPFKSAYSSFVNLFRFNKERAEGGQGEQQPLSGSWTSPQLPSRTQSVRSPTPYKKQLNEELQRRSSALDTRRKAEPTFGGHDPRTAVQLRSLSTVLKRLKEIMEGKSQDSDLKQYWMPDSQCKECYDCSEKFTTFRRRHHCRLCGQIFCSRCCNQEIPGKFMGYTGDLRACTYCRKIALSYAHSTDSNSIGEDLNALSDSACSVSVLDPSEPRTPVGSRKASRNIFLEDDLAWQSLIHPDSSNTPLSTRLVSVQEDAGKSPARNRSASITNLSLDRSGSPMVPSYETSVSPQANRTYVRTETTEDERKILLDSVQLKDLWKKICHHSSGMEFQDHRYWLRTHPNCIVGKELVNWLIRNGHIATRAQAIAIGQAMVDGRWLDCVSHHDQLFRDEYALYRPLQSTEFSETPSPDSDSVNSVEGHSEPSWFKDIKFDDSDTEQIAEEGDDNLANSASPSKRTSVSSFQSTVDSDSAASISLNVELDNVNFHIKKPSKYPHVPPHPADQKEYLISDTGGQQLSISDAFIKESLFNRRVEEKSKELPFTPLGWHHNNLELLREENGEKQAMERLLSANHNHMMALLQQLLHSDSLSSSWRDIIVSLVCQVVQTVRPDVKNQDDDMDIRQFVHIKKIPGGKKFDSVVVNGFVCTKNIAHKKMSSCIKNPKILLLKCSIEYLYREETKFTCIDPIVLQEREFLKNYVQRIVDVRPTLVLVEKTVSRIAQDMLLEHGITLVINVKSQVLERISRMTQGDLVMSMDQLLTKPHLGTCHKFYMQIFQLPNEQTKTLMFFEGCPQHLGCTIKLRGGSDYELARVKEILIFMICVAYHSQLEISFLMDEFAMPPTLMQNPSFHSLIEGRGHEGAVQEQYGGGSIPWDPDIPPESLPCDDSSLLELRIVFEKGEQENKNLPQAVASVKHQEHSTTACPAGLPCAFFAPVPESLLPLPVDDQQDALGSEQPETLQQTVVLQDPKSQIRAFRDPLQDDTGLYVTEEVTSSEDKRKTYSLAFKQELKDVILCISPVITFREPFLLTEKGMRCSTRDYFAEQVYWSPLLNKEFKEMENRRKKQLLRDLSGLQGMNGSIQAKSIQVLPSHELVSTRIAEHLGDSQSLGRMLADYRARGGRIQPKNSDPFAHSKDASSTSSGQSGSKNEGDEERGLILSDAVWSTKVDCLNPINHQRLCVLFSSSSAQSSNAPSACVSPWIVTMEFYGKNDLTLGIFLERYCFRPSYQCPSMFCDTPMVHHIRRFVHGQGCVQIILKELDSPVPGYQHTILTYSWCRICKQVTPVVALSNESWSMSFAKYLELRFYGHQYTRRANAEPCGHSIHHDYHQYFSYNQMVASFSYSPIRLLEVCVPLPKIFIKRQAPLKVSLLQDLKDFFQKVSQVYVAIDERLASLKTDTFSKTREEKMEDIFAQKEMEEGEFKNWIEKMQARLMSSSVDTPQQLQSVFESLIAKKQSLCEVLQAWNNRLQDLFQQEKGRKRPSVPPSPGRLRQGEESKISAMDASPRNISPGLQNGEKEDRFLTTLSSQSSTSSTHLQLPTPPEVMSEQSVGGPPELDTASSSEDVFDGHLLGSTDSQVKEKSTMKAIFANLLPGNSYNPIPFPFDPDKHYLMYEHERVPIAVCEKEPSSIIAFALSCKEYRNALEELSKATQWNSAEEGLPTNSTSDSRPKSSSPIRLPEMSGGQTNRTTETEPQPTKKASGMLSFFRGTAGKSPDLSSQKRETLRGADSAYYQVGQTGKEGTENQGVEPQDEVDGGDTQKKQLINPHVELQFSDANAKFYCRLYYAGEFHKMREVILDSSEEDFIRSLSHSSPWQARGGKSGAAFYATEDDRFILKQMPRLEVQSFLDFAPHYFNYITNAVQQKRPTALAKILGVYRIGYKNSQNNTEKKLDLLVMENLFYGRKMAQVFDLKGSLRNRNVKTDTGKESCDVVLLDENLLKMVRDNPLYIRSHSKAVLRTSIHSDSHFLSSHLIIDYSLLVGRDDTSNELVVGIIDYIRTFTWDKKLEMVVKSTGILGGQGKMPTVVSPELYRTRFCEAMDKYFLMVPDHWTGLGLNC
# In short: as §1
# [12] = biological target: T12, 384 kinases from the human genome (Homo sapiens, UniProt P42336); details: kinase PIK3CA (Entrez PIK3CA)
# T12 construct: purchased Eurofin/DiscoverX
# In short: as §1
# [13] = biological target: T13, 384 kinases from the human genome (Homo sapiens, UniProt Q96Q40); details: kinase PFTAIRE2 (Entrez CDK15)
# T13 construct: purchased Eurofin/DiscoverX
# In short: as §1
# [14] = biological target: T14, 384 kinases from the human genome (Homo sapiens, UniProt O15075); details: kinase DCAMKL1 (Entrez DCLK1)
# T14 construct: purchased Eurofin/DiscoverX
# In short: as §1
# [15] = biological target: T15, 384 kinases from the human genome (Homo sapiens, UniProt Q9H093); details: kinase SNARK (Entrez NUAK2)
# T15 construct: purchased Eurofin/DiscoverX
# In short: as §1
# [16] = biological target: T16, 384 kinases from the human genome (Homo sapiens, UniProt Q8WTQ7); details: kinase GRK7 (Entrez GRK7)
# T16 construct: purchased Eurofin/DiscoverX
# In short: as §1
# [17] = biological target: T17, 384 kinases from the human genome (Homo sapiens, UniProt O00444); details: kinase PLK4 (Entrez PLK4)
# T17 construct: purchased Eurofin/DiscoverX
# In short: as §1
# [18] = biological target: T18, 384 kinases from the human genome (Homo sapiens, UniProt P08581); details: kinase MET (Entrez MET)
# T18 construct: purchased Eurofin/DiscoverX
# In short: as §1
# [19] = biological target: T19, 384 kinases from the human genome (Homo sapiens, UniProt Q02779); details: kinase MLK2 (Entrez MAP3K10)
# T19 construct: purchased Eurofin/DiscoverX
# In short: as §1
# [20] = biological target: T20, 384 kinases from the human genome (Homo sapiens, UniProt Q96SB4); details: kinase SRPK1 (Entrez SRPK1)
# T20 construct: purchased Eurofin/DiscoverX
# T20 sequence (Q96SB4 whole entry): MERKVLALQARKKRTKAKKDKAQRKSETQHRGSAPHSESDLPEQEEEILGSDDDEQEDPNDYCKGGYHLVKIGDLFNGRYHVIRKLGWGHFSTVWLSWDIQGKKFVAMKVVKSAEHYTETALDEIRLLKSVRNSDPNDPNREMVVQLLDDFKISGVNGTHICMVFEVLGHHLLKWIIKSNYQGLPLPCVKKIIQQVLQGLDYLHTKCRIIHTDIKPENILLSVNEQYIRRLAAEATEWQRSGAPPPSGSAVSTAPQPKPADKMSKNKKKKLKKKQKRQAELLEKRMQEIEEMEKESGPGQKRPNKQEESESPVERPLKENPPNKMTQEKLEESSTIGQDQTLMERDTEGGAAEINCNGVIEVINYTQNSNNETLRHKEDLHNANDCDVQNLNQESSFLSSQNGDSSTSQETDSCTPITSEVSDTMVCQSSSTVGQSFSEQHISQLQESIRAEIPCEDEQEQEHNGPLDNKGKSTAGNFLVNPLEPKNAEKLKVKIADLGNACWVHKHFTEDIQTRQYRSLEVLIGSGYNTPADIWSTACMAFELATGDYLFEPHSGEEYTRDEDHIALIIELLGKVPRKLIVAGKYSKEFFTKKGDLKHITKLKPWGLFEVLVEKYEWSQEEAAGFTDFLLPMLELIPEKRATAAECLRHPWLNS
# In short: as §1
# [21] = biological target: T21, 384 kinases from the human genome (Homo sapiens, UniProt Q9UHD2); details: kinase TBK1 (Entrez TBK1)
# T21 construct: purchased Eurofin/DiscoverX
# In short: as §1
# [22] = biological target: T22, 384 kinases from the human genome (Homo sapiens, UniProt Q8IY84); details: kinase NIM1 (Entrez MGC42105)
# T22 construct: purchased Eurofin/DiscoverX
# In short: as §1
# [23] = biological target: T23, 384 kinases from the human genome (Homo sapiens, UniProt Q9UEW8); details: kinase STK39 (Entrez STK39)
# T23 construct: purchased Eurofin/DiscoverX
# In short: as §1
# [24] = biological target: T24, 384 kinases from the human genome (Homo sapiens, UniProt Q13233); details: kinase MAP3K1 (Entrez MAP3K1)
# T24 construct: purchased Eurofin/DiscoverX
# In short: as §1
# [25] = biological target: T25, 384 kinases from the human genome (Homo sapiens, UniProt Q9UBF8); details: kinase PIK4CB (Entrez PI4KB)
# T25 construct: purchased Eurofin/DiscoverX
# In short: as §1
# [26] = biological target: T26, 384 kinases from the human genome (Homo sapiens, UniProt O43318); details: kinase TAK1 (Entrez MAP3K7)
# T26 construct: purchased Eurofin/DiscoverX
# In short: as §1
structure (smiles),measurement,setting,value
CC(C)C(=O)N1CCN(c2ccc(NC(=O)c3cc4ccccc4o3)cc2Cl)CC1 [Compound 21],Percent Control,[1],77%
same,Percent Control,[2],98%
same,Percent Control,[3],99%
same,Percent Control,[4],93%
same,Percent Control,[5],70%
same,Percent Control,[6],98%
same,Percent Control,[7],73%
same,Percent Control,[8],100%
same,Percent Control,[9],95%
same,Percent Control,[10],82%
same,Percent Control,[11],61%
same,Percent Control,[12],100%
same,Percent Control,[13],100%
same,Percent Control,[14],76%
same,Percent Control,[15],96%
same,Percent Control,[16],90%
same,Percent Control,[17],89%
same,Percent Control,[18],91%
same,Percent Control,[19],96%
same,Percent Control,[20],96%
same,Percent Control,[21],100%
same,Percent Control,[22],77%
same,Percent Control,[23],100%
same,Percent Control,[24],92%
same,Percent Control,[25],74%
same,Percent Control,[26],83%
